# Data from US20220267347A1, “SUBSTITUTED PYRIMIDINEDIONE COMPOUNDS AND USES THEREOF” (SUNSHINE LAKE PHARMA CO., LTD., priority 2019, published 2022).
# Columns and labels:
# humanized GnRH receptor = target: T1, humanized GnRH receptor (Homo sapiens, UniProt P30968); assay: Antagonism on humanized GnRH receptor transfected in RBL-1 cells, fluorescence detection of cytoplasmic calcium flow; assay type: cell-based; settings: RBL-1 cells transfected with humanized GnRH receptor, 8 nM LH-RH
# T1 construct: expressed in transfected cells; host or cells: RBL-1 cells (Rat Basophilic Leukemia)
# T1 sequence (P30968 1-328): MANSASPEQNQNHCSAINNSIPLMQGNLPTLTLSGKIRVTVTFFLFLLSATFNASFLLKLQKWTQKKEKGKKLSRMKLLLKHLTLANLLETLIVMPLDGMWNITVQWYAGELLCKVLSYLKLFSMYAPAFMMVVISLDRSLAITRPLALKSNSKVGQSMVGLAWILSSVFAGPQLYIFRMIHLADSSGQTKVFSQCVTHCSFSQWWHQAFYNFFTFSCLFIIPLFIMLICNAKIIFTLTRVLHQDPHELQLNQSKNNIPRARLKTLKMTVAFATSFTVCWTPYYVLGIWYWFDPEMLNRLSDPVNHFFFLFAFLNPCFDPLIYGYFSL
# Procedure: The antagonism of the compound on humanized GnRH receptor transfected in RBL-1 cells (Rat Basophilic Leukemia) was evaluated by a fluorescence method for detecting the cytoplasmic calcium flow.
# The cells were suspended in HBSS buffer (Invitrogen, USA), 20 mM HEPES buffer (Invitrogen, USA) was added, and then the cells were added at an average density of 1.186×10^4 cells/well into a microwell reaction plate. Fluorescent probe (Fluo8 Direct, AAT Bioquest) was mixed with HBSS buffer (adding 20 mM HEPES buffer, pH=7.4), and the mixture was added into each well and the cells were incubated at 30° C. for 60 min. Then the reaction plate was placed in a microplate reader (FlipR Tetra, Molecular Device) for testing, the test compound or HBSS buffer (blank control) was added, after 5 min, 8 nM LH-RH was added, and the changes of the fluorescence intensity which is proportional to intracellular calcium ion concentration were measured. The fluorescence intensity of the blank control group without adding the compound was taken as 100% (inhibition rate was 0%), and the inhibition rate of the compound was calculated. The IC50 value was calculated by measuring the inhibition rate of the compound at different concentrations.
# [1] = Pharmacokinetic evaluation after intravenous or gavage administration to dogs; assay type: in vivo, Beagle dogs; settings: 2.5 mg/kg; for AUC(0-inf) / AUC(0-t) / Cmax / MRT inf / Tmax / half-life: beagle, dog, plasma, intravenous, i.v group; for F: gavage group
# Procedure: (§1) The pharmacokinetics of the compound of the invention in rats and/or dogs were evaluated herein, the animal information was listed in Table B.
# The compound of the present invention was administered to the animal subjects in the form of 10% DMSO+10% Kolliphor HS15+78% Saline+2% (2% HCl) solution or 78% Saline+2% (2% HCl)+20% PEG400 solution. Before administration, the animals were fasted for 12 hours but water was freely allowed. In the IV group, the dose was 1 mg/kg (Rats) or 0.5 mg/kg (dogs), blood samples were taken from vein at the following time points after administration (blood volume was about 0.2 mL): 0.083, 0.25, 0.5, 1.0, 2.0, 4.0, 6.0, 8.0 and 24 h (dogs) or 0.083, 0.25, 0.5, 1.0, 2.0, 5.0, 7.0 and 24 h (Rats), EDTA-K2 was pre-added to the blood vessels as an anticoagulant. […] The blood samples were centrifuged at […] for 2 minutes. The plasma was collected and kept at −20° C. or −70° C.
# (§2) The above collected plasma samples were processed (after thawing of frozen plasma at room temperature, the thawed plasma was vortexed for 15 s; 10-20 μL of plasma was taken and 120-150 μL of acetonitrile solution containing internal standard was added to the plasma; the mixture was vortexed for 5 min amd centrifuged for 5 min at 4,000 rpm; 100 μL of supernatant was taken and 120-150 μL of methanol/water (v/v=1/1) was added to the suspernatant, and mixing), and then LC/MS/MS was used to analyze the concentration of the compound in plasma, and […] was used to calculate the pharmacokinetic parameters.
# [2] = Pharmacokinetic evaluation after intravenous or gavage administration to rats; assay type: in vivo, SD rats; settings: for AUC(0-inf) / AUC(0-t) / Cmax / MRT inf / Tmax / clearance / half-life: Sprague-Dawley (SD), rat, plasma
# Procedure: as §1
# The compound of the present invention was administered to the animal subjects in the form of 10% DMSO+10% Kolliphor HS15+78% Saline+2% (2% HCl) solution or 78% Saline+2% (2% HCl)+20% PEG400 solution. Before administration, the animals were fasted for 12 hours but water was freely allowed. In the IV group, the dose was 1 mg/kg (Rats) or 0.5 mg/kg (dogs), blood samples were taken from vein at the following time points after administration (blood volume was about 0.2 mL): 0.083, 0.25, 0.5, 1.0, 2.0, 4.0, 6.0, 8.0 and 24 h (dogs) or 0.083, 0.25, 0.5, 1.0, 2.0, 5.0, 7.0 and 24 h (Rats), EDTA-K2 was pre-added to the blood vessels as an anticoagulant. In the gavage group, the dose was 5 mg/kg (Rats) or 2.5 mg/kg (dogs), blood samples were taken from vein at the following time points after administration (blood volume was about 0.2 mL): 0.25, 0.5, 1.0, 2.0, 4.0, 6.0, 8.0 and 24 h (dogs) or 0.25, 0.5, 1.0, 2.0, 5.0, 7.0 and 24 h (Rats), EDTA-K2 was pre-added to the blood vessels as an anticoagulant. The blood samples were centrifuged at […] for 2 minutes. The plasma was collected and kept at −20° C. or −70° C.
# as §2
IC50 (humanized GnRH receptor) [nM],AUC(0-inf) [1] [ng·h/mL],AUC(0-t) [1] [ng·h/mL],Cmax [1] [ng/mL],MRT inf [1] [h],Tmax [1] [h],half-life [1] [h],F [1] [%],"AUC(0-inf) ([2]; iv, i.v group, 1 mg/kg) [ng·h/mL]","AUC(0-t) ([2]; iv, i.v group, 1 mg/kg) [ng·h/mL]","Cmax ([2]; iv, i.v group, 1 mg/kg) [ng/mL]","MRT inf ([2]; iv, i.v group, 1 mg/kg) [h]","Tmax ([2]; iv, i.v group, 1 mg/kg) [h]","clearance ([2]; iv, i.v group, 1 mg/kg) [mL/min/kg]","half-life ([2]; iv, i.v group, 1 mg/kg) [h]","AUC(0-inf) ([2]; po, i.g group, 5 mg/kg) [ng·h/mL]","AUC(0-t) ([2]; po, i.g group, 5 mg/kg) [ng·h/mL]","Cmax ([2]; po, i.g group, 5 mg/kg) [ng/mL]","MRT inf ([2]; po, i.g group, 5 mg/kg) [h]","Tmax ([2]; po, i.g group, 5 mg/kg) [h]",SMILES,also measured
3,4290,4130,720,5.59,1.33,4.41,133,266,261,352,1.22,0.083,62.7,1.33,529,519,177,2.48,0.667,"CONC(=O)Nc1ccc(-c2sc3c(c2CN(C)C)c(=O)n(-c2ccc(-n4nccn4)cn2)c(=O)n3Cc2c(F)cccc2F)cc1 [Example 2, 1-(4-(3-(5-(2H-1,2,3-triazol-2-yl)pyrid-2-yl)-1-(2,6-difluorobenzyl)-5-((dimethylamino)methyl)-2,4-dioxo-1,2,3,4-tetrahydrothieno[2,3-d]pyrimidin-6-yl)phenyl)-3-methoxyurea]","half-life ([2]; po, i.g group, 5 mg/kg): 1.91 h; F ([2]; i.g group, 5 mg/kg): 39.8%"
1.82,11800,9490,671,13.2,1.67,9.44,140.3,184,179,151,4.58,0.083,90.7,2.13,1750,1710,164,6.4,2.33,"CONC(=O)Nc1ccc(-c2sc3c(c2CN(C)C)c(=O)n(-c2ccc(-n4cccn4)nc2)c(=O)n3Cc2c(F)cccc2F)cc1 [Example 3, 1-(4-(3-(6-(1H-pyrazol-1-yl)pyrid-3-yl)-1-(2,6-difluorobenzyl)-5-((dimethylamino)methyl)-2,4-dioxo-1,2,3,4-tetrahydrothieno[2,3-d]pyrimidin-6-yl)phenyl)-3-methoxyurea]","half-life ([2]; po, i.g group, 5 mg/kg): 4.43 h; F ([2]; i.g group, 5 mg/kg): 190.6%"
2.22,,,,,,,,,,,,,,,,,,,,"CONC(=O)Nc1ccc(-c2sc3c(c2CN(C)C)c(=O)n(-c2ccc(-n4nccn4)nc2)c(=O)n3Cc2c(F)cccc2F)cc1 [Example 4, 1-(4-(3-(6-(2H-1,2,3-triazol-2-yl)pyrid-3-yl)-1-(2,6-difluorobenzyl)-5-((dimethylamino)methyl)-2,4-dioxo-1,2,3,4-tetrahydrothieno[2,3-d]pyrimidin-6-yl)phenyl)-3-methoxyurea]",
4.1,,,,,,,,,,,,,,,,,,,,"CONC(=O)Nc1ccc(-c2sc3c(c2CN(C)C)c(=O)n(-c2cccc(-n4cccn4)n2)c(=O)n3Cc2c(F)cccc2F)cc1 [Example 5, 1-(4-(3-(6-(1H-pyrazol-1-yl)pyrid-2-yl)-1-(2,6-difluorobenzyl)-5-((dimethylamino)methyl)-2,4-dioxo-1,2,3,4-tetrahydrothieno[2,3-d]pyrimidin-6-yl)phenyl)-3-methoxyurea]",
3.13,,,,,,,,,,,,,,,,,,,,"CONC(=O)Nc1ccc(-c2sc3c(c2CN(C)C)c(=O)n(-c2ccc(-n4cccn4)nn2)c(=O)n3Cc2c(F)cccc2F)cc1 [Example 12, 1-(4-(3-(6-(1H-pyrazol-1-yl)pyridazin-3-yl)-1-(2,6-difluorobenzyl)-5-((dimethylamino)methyl)-2,4-dioxo-1,2,3,4-tetrahydrothieno[2,3-d]pyrimidin-6-yl)phenyl)-3-methoxyurea]",
